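Briefly, cells in 96-well plates were exposed to five compound concentrations for 48 h, and endpoints were estimated by linear interpolation. The concentration for 50% growth inhibition is given as GI50. TGI is the concentration that stops growth completely.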
Each compound was assayed on DMS 273 small cell lung (assay: inhibition of tumour cell growth, NCI panel, 48 h).

Q: For CC1=[N+]([O-])c2ccccc2C(=O)C1=O, which TGI is on record?
A: > 100 µM

Q: CNC(=S)/N=C(\N)N(C)C was tested. Which TGI did it give?
A: > 100 µM

Q: For c1cnn(CN(Cn2cccn2)Cn2cccn2)c1, which TGI is on record?
A: > 100 µM

Q: How did the TGI turn out when O=C1C2C3C=C4c5ccccc5N(c5ccccc5)C4(C2C(=O)N1c1ccc([N+](=O)[O-])cc1)[C@H]1C(=O)N(c2ccc([N+](=O)[O-])cc2)C(=O)[C@@H]31 (stereo not given in full) was run?
A: > 100 µM

What follows are compounds tested on XF 498 CNS (assay: inhibition of tumour cell growth, NCI panel, 48 h).

Q: With Cn1cc(C2(C)CC(C)(C)c3c2n(C)c2ccccc32)c2ccccc21 (stereo not given) as the compound, how does the TGI read?
A: > 100 µM

Q: With COC(=O)C(CC(=O)Nc1ccc(C)cc1)C(=O)C(=O)Nc1c(C(C)C)cccc1C(C)C (stereo not given) as the compound, how does the TGI read?
A: > 100 µM

Q: With CCOC(=O)C(=O)Nc1ccccc1CC as the compound, how does the TGI read?
A: > 100 µM

Q: With Cc1cc(NS(=O)(=O)c2ccc(Nc3c4ccccc4nc4c(C(=O)N5CCN(CCO)CC5)cccc34)cc2)no1 as the compound, how does the TGI read?
A: > 100 µM

Q: O=C1c2ccccc2C(=O)C1(O)c1c[nH]c2ccccc12 was tested. Which TGI did it give?
A: > 100 µM

Q: How did the TGI turn out when Nc1ccccc1/C(O)=C1/CCOC1=O was run?
A: > 100 µM

Q: How did the TGI turn out when COc1ccc2c3c([nH]c2c1[N+](=O)[O-])C(C)N(C)CC3 (stereo not given) was run?
A: > 100 µM

Q: With COc1cc(/C=C/c2ccc(OC)c(O)c2)cc(OC)c1 as the compound, how does the TGI read?
A: 9.52 µM

Q: How did the TGI turn out when O=C(Nc1ccccc1-c1nc2ccccc2[nH]c1=O)c1ccccc1 was run?
A: 49.9 µM

Q: How did the TGI turn out when CC1=[N+]([O-])c2ccccc2C(=O)C1=O was run?
A: > 100 µM

Q: With CNC(=S)/N=C(\N)N(C)C as the compound, how does the TGI read?
A: > 100 µM

Q: How did the TGI turn out when c1cnn(CN(Cn2cccn2)Cn2cccn2)c1 was run?
A: > 100 µM

What follows are compounds tested on RXF-631 renal (assay: inhibition of tumour cell growth, NCI panel, 48 h).

Q: For COC(=O)C(CC(=O)Nc1ccc(C)cc1)C(=O)C(=O)Nc1c(C(C)C)cccc1C(C)C (stereo not given), which TGI is on record?
A: > 100 µM

Q: How did the TGI turn out when O=C(/C=C/c1ccc(Cl)c(Cl)c1)c1ccc2ccccc2c1 was run?
A: > 100 µM

Q: With CCOC(=O)C(=O)Nc1ccccc1CC as the compound, how does the TGI read?
A: > 100 µM

Q: With O=C1c2ccccc2C(=O)C1(O)c1c[nH]c2ccccc12 as the compound, how does the TGI read?
A: > 100 µM

Q: c1ccc(C2N3CCCCC3[C@@H]3c4[nH]c5ccccc5c4CCN23)nc1 (stereo not given in full) was tested. Which TGI did it give?
A: > 100 µM

Q: With CC(=O)C1Cn2c(nc3ccccc32)C[Se]1 (stereo not given) as the compound, how does the TGI read?
A: 7.76 µM

What follows are compounds tested on MDA-N (assay: inhibition of tumour cell growth, NCI panel, 48 h).

Q: Which TGI does the source give for OCC1OC(n2cnc3c2NC=NC[C@H]3O)C(Cl)C1O (stereo not given in full) here?
A: > 100 µM

Q: Which TGI does the source give for COc1ccc(C2=C(Cl)c3cc(OC)c(OC)cc3C2Cl)cc1 (stereo not given) here?
A: 22.8 µM

Q: With CC1=C(/C=C/Cl)CC(Cl)C(C)(Cl)C1 (stereo not given) as the compound, how does the TGI read?
A: > 100 µM

Q: CN1CCc2nc(N)nc(-c3nc(N)nc4c3CN(C)CC4)c2C1 was tested. Which TGI did it give?
A: > 100 µM

Q: For COc1c2c(cc3c1OCO3)[C@]13C=C[C@H](OC)C[C@H]1N(C2)CC3O (stereo not given in full), which TGI is on record?
A: > 100 µM

Q: Which GI50 does the source give for COc1ccc(C[N+](C)(C)N)cc1OC here?
A: > 100 µM

Q: What about the TGI of the same compound?
A: > 100 µM

Q: With COc1ccc(-c2cc(-c3cc(C)cc(Br)c3O)no2)cc1 as the compound, how does the TGI read?
A: > 100 µM

Q: CN(C)CCNc1ccc(CO)c2oc3ccc(O)cc3c(=O)c12 was tested. Which TGI did it give?
A: 25.7 µM

The compounds below were run on DU-145 prostate (assay: inhibition of tumour cell growth, NCI panel, 48 h).

Q: With CC1(C)C(=O)/C(=C\c2cccnc2)C[C@]2(C)[C@H]3CC[C@@H]4[C@H]5[C@H](C(=O)/C=C/c6cccnc6)CC[C@]5(C(=O)O)CC[C@@]4(C)[C@]3(C)CC[C@@H]12 as the compound, how does the GI50 read?
A: 2.1 µM

Q: What about the TGI of the same compound?
A: 5 µM

Q: COc1cc2ncnc(-n3ncc4cc(NC(=O)Nc5ccccc5)ccc43)c2cc1OC was tested. Which GI50 did it give?
A: 0.867 µM

Q: And the TGI?
A: 11.4 µM

Q: Which GI50 does the source give for COc1ccc(C(=O)c2cc(OC)c(OC)c(OC)c2)cc1/C=C/C(=O)c1ccc(F)cc1 here?
A: 7.72 µM

Q: What about the TGI of the same compound?
A: 21 µM

Q: How did the TGI turn out when OCC1OC(n2cnc3c2NC=NC[C@H]3O)C(Cl)C1O (stereo not given in full) was run?
A: > 100 µM

Q: COc1ccc(C2=C(Cl)c3cc(OC)c(OC)cc3C2Cl)cc1 (stereo not given) was tested. Which TGI did it give?
A: 45.4 µM

Q: COc1ccc(-c2[nH]c3ccc(OC)cc3c2/C=C(\C#N)S(=O)(=O)c2ccccc2)cc1 was tested. Which GI50 did it give?
A: 0.785 µM

Q: What about the TGI of the same compound?
A: > 31.4 µM

Q: Which results are given for O=c1cc(NCC(O)CN2CCCC2)n(Cc2ccccc2)c(=O)n1Cc1ccccc1 (stereo not given)?
A: GI50: 87 µM; TGI: > 100 µM

Q: Which GI50 does the source give for c1ccc(Sc2ccc(Cc3nc4cc5ccccc5cc4[nH]3)cc2)cc1 here?
A: 23 µM

Q: What about the TGI of the same compound?
A: > 100 µM

Q: With CCc1nc2cc(F)c(/C=C/C(=O)NO)cc2c(=O)n1CCc1ccccc1 as the compound, how does the GI50 read?
A: 0.358 µM

Q: What about the TGI of the same compound?
A: 10.5 µM

Q: COc1cc(OC)c(C(=O)/C=C/c2cccc(C(F)(F)F)c2)c(OC)c1 was tested. Which GI50 did it give?
A: 1.73 µM

Q: What about the TGI of the same compound?
A: 6.08 µM

Q: With C/C(=N\Nc1ccc(Cl)cn1)c1ccc2ccccc2n1 as the compound, how does the GI50 read?
A: 4.03 µM

Q: What about the TGI of the same compound?
A: > 100 µM

Q: For CC1=C(/C=C/Cl)CC(Cl)C(C)(Cl)C1 (stereo not given), which TGI is on record?
A: > 100 µM

Q: What does the source list for COc1cc2c(cc1OCCCCC(=O)Nc1cc3c4ccccc4ccc3c3ccccc13)N=C[C@@H]1CCCN1C2=O?
A: GI50: 2.84 µM; TGI: 14.1 µM

Q: How did the TGI turn out when CN1CCc2nc(N)nc(-c3nc(N)nc4c3CN(C)CC4)c2C1 was run?
A: > 100 µM

Q: With COc1c2c(cc3c1OCO3)[C@]13C=C[C@H](OC)C[C@H]1N(C2)CC3O (stereo not given in full) as the compound, how does the TGI read?
A: > 100 µM

Q: What does the source list for C=C1C(=O)O[C@H]2[C@H]1CC/C(COC(=O)NCCCCNC(=O)OC/C1=C/CC[C@@]3(C)O[C@H]3[C@H]3OC(=O)C(=C)[C@@H]3CC1)=C\CC[C@@]1(C)O[C@@H]21?
A: GI50: 3.21 µM; TGI: 10.5 µM

Q: Which results are given for COc1ccc(C[N+](C)(C)N)cc1OC?
A: GI50: > 100 µM; TGI: > 100 µM

Q: Which TGI does the source give for COc1ccc(-c2cc(-c3cc(C)cc(Br)c3O)no2)cc1 here?
A: 36.2 µM

Q: What does the source list for COc1ccc(-c2nc3ccccn3c2/C=C/C(=O)c2cc(OC)c(OC)c(OC)c2)cc1OC?
A: GI50: 2.63 µM; TGI: 8.14 µM

Q: How did the GI50 turn out when COc1c(C(=O)/C=C/c2ccccc2)c(O)cc2occc12 was run?
A: 3.81 µM

Q: What about the TGI of the same compound?
A: 13.2 µM

Q: CC(C)c1c(O)c(O)c2c(c1O)C(=O)C(O)=C1C(C)(C)CCC[C@@]12C was tested. Which TGI did it give?
A: 18.1 µM

Q: What does the source list for NS(=O)(=O)c1ccc(-c2ccc3c(NC(=O)C4CC4)n[nH]c3c2)cc1?
A: GI50: > 25 µM; TGI: > 25 µM

Q: With COc1cc2c3c(n(CCCN)c(=O)c2cc1OC)-c1ccc(C#N)cc1C3=O as the compound, how does the GI50 read?
A: 12.3 µM

Q: And the TGI?
A: 25.5 µM

Q: Which results are given for C=CCCCCC/C=C\[C@@H](O)C#CC#C/C=C/CO?
A: GI50: > 100 µM; TGI: > 100 µM

Q: For CCCCC(CC)COC(=O)C[N+](C)(C)CCOC(c1ccccc1)c1ccccc1 (stereo not given), which GI50 is on record?
A: 5.53 µM

Q: And the TGI?
A: 18 µM

Q: How did the GI50 turn out when N#Cc1cc(-c2cc3ccccc3o2)oc1N was run?
A: 4.4 µM

Q: What about the TGI of the same compound?
A: 28.9 µM

Q: What does the source list for Cc1cc(C(=O)Nc2ccc3cc(CN4CCOCC4)ccc3n2)c(C)n1-c1ccccc1?
A: GI50: 3.6 µM; TGI: 35.7 µM

Q: Which results are given for O=S(=O)(c1ccc(NC(=S)NC23CC4CC(CC(C4)C2)C3)cc1)N1CCCCC1?
A: GI50: 4.09 µM; TGI: > 100 µM

Q: For Cc1cc(NC(=S)SCc2ccc(F)cc2)c([N+](=O)[O-])cc1C, which TGI is on record?
A: > 100 µM

Q: With COc1ccc(C(=O)c2cc(C)c(OC)c(C)c2)cc1OC(=O)CCl as the compound, how does the GI50 read?
A: < 0.01 µM

Q: And the TGI?
A: > 100 µM

Q: Which results are given for NC(=O)c1cc(Cl)ccc1NC(=O)/C=C/c1ccccc1?
A: GI50: 3.3 µM; TGI: > 24.4 µM
